These results are taken from patent publication US5262417A, “Antibacterial quinolone compounds” (The Upjohn Company, priority 1991, dated 1993).

Holding throughout (test): Dip disk (disk-diffusion) assay, disks loaded with 0.05 ml
Holding throughout (type): cell-based
For orientation: A growth-free zone around the sample is the usual read-out of agar diffusion tests.

The test system of test [1] is Escherichia coli UC 51 (EC). Particulars: Escherichia coli, UC51; 0.1 mcg/ml, 0.05 ml per disk; read-out: Growth Inhibition zone, EC. The protocol: (§1) The effectiveness of the subject compounds on bacteria were obtained by performing a dip disk assay. The antibacterial activity of the compounds was determined by the disk-diffusion method. Paper disks (12.7 mm) were loaded with 0.05 ml of drug solution prepared at a concentration of 0.1 mcg/ml; the disks were allowed to air dry. They were then applied to the surface of microorganism-seeded agar assay trays, which contained the bacterial strain Pseudomonas aeruginosa UC 95 (PA), Escherichia coli UC 51 (EC), Klebsiella pneumoniae UC 57 (KP), or Staphylococcus aureus UC 80 (SA). The assay trays were incubated overnight under aerobic condition to allow for the growth of the organisms. Zones of growth inhibition due to the action of the antibiotic were then measured to the nearest millimeter.
(§2) The effectiveness of additional compounds 5-9, (5-7 are Formula IAa compounds and 8 and 9 are Formula IAb compounds) on bacteria were obtained by performing a dip disk assay as described above. The antibacterial activity of the compounds was determined by the disk-diffusion method where the disks were loaded with 0.05 ml of drug solution prepared at a concentration of 1.0 mcg/ml; the disks were allowed to air dry.

Test [2] has as its system Pseudomonas aeruginosa UC 95 (PA). Particulars: Pseudomonas aeruginosa, UC95; 0.1 mcg/ml, 0.05 ml per disk; read-out: Growth Inhibition zone, PA. The protocol: as §1, §2
Test [3] concerns Staphylococcus aureus UC 80 (SA). Particulars: Staphylococcus aureus, UC80, read-out: Growth Inhibition zone, SA. The protocol:
as §1, §2

As to `O=C(O)c1cn(C2CC2)c2cc(N3CCNCC3)c(F)cc2c1=O` [Ciprofloxacin, reference compound], the figures for the zone of inhibition at 0.1 µg/mL in test [1], in test [2] and in test [3] were 29 mm, 38 mm and 27 mm, respectively.
